Assay results: BindingDB's records for doi:10.1021/acs.jmedchem.0c02069 (Indiana University, 2021)
Peptide text beside a SMILES is read from it.

Target: Glucagon receptor (Homo sapiens, UniProt P47871)
Test: Displacement of 125I-glucagon from human GCGR expressed in HEK293 cells membranes incubated for 6 hrs by liquid scintillation counting method

Chain of Glucagon receptor (P47871 whole entry): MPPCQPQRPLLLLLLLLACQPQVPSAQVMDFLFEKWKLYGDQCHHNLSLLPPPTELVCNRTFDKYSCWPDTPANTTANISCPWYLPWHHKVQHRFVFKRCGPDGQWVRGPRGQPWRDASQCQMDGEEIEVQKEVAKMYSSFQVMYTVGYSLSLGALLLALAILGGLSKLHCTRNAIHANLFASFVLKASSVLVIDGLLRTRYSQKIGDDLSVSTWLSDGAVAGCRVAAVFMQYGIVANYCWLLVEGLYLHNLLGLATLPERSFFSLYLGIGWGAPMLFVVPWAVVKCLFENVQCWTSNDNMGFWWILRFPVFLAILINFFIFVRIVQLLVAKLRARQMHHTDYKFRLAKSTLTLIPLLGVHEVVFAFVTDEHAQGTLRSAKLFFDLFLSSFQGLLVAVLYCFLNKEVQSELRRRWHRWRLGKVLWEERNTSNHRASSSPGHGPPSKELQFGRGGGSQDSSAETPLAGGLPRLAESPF

Compound	IC50 [nM]
CSCC[C@H](NC(=O)[C@H](CC(C)C)NC(=O)[C@H](Cc1c[nH]c2ccccc12)NC(=O)[C@H](CCC(N)=O)NC(=O)[C@@H](NC(=O)[C@H](Cc1ccccc1)NC(=O)[C@H](CC(=O)O)NC(=O)[C@H](CCC(N)=O)NC(=O)[C@H](C)NC(=O)[C@H](CCCNC(=N)N)NC(=O)[C@H](CCCNC(=N)N)NC(=O)[C@H](CO)NC(=O)[C@H](CC(=O)O)NC(=O)[C@H](CC(C)C)NC(=O)[C@H](Cc1ccc(O)cc1)NC(=O)[C@H](CCCCN)NC(=O)[C@H](CO)NC(=O)[C@H](Cc1ccc(O)cc1)NC(=O)[C@H](CCC(=O)O)NC(=O)[C@H](CO)NC(=O)[C@@H](NC(=O)[C@@H](O)Cc1ccccc1)[C@@H](C)O)C(C)C)C(=O)N[C@@H](CC(N)=O)C(=O)N[C@H](C(N)=O)[C@@H](C)O (HELM PEPTIDE1{[O=C([C@@H](O)Cc1ccccc1)[*:2]].T.S.E.Y.S.K.Y.L.D.S.R.R.A.Q.D.F.V.Q.W.L.M.N.T.[am]}$$$$V2.0)	12
CSCC[C@H](NC(=O)[C@H](CC(C)C)NC(=O)[C@H](Cc1c[nH]c2ccccc12)NC(=O)[C@H](CCC(N)=O)NC(=O)[C@@H](NC(=O)[C@H](Cc1ccccc1)NC(=O)[C@H](CC(=O)O)NC(=O)[C@H](CCC(N)=O)NC(=O)[C@H](C)NC(=O)[C@H](CCCNC(=N)N)NC(=O)[C@H](CCCNC(=N)N)NC(=O)[C@H](CO)NC(=O)[C@H](CC(=O)O)NC(=O)[C@H](CC(C)C)NC(=O)[C@H](Cc1ccc(O)cc1)NC(=O)[C@H](CCCCN)NC(=O)[C@H](CO)NC(=O)[C@H](Cc1ccc(O)cc1)NC(=O)[C@H](CSCC(=O)O)NC(=O)[C@H](CO)NC(=O)[C@@H](NC(=O)[C@H](Cc1ccccc1)NC(=O)[C@@H](NC(=O)CNC(=O)[C@H](CCC(N)=O)NC(=O)[C@@H](N)CO)[C@@H](C)O)[C@@H](C)O)C(C)C)C(=O)N[C@@H](CC(N)=O)C(=O)N[C@H](C(N)=O)[C@@H](C)O	13
